In patent US4743587A, “Hydroxamic acid based collagenase inhibitors” (G. D. Searle & Co., priority 1986, dated 1988) one finds IC50 data, which are given here for 21 molecules.

Bounds are passed on as bounds.

This experiment has as its target T1, Human Rheumatoid Synovial Collagenase (Homo sapiens, UniProt P03956).
T1 construct: from tissue
T1 sequence (P03956 100-469): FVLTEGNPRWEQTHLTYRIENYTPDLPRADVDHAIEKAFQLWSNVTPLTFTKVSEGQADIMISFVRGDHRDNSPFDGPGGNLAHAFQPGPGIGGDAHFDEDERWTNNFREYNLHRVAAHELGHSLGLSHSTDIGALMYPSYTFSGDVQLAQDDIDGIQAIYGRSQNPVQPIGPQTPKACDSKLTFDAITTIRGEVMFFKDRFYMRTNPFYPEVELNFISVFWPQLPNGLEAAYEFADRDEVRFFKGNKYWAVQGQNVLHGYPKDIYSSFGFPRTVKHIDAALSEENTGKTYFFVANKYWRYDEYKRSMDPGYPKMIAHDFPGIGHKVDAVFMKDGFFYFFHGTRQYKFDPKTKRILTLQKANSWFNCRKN
Put plainly: Collagenase inhibition (acetyl 14C collagen hydrolysis, procedure of Cawston and Barrett). The experiment is classed as biochemical. The conditions noted are these: incubated at 37° C. for 16 hours with native acetyl 14C collagen and collagenase, Tris HCl-CaCl2, pH 7.6. As to the method: This was determined following the procedure of Cawston and Barrett, (Anal. […] The collagen is acetyl ^14 C collagen. The samples are centrifuged to sediment undigested collagen and an aliquot of the radioactive supernatant removed for assay on a scintillation counter as a measure of hydrolysis.
Take `CNC(=O)[C@H](Cc1ccc(OC)cc1)NC(=O)C(CC(C)C)C(C)C(=O)NO` (single isomer, unassigned) [3(A), N-[3-(N'-Hydroxycarboxamido)-2-(2-methylpropyl)butanoyl]-O-methyl-L-tyrosine N-Methylamide]: the IC50 (as a rule, the point on the concentration scale where inhibition reaches its midpoint) was 0.4 µM. In turn, `CNC(=O)[C@H](Cc1ccc(OC)cc1)NC(=O)C(CC(C)C)C(C)C(=O)NO` (single isomer, unassigned) [3(B), N-[3-(N'-Hydroxycarboxamido)-2-(2-methylpropyl)butanoyl]-O-methyl-L-tyrosine N-Methylamide] came in with an IC50 of 20 µM. As for `CNC(=O)[C@H](Cc1ccc(OC)cc1)NC(=O)C(CC(C)C)C(C)C(=O)NO` (single isomer, unassigned) [3(C), N-[3-(N'-Hydroxycarboxamido)-2-(2-methylpropyl)butanoyl]-O-methyl-L-tyrosine N-Methylamide], the figure is 0.02 µM. For `CNC(=O)[C@H](Cc1ccc(OC)cc1)NC(=O)C(CC(C)C)C(C)C(=O)NO` (single isomer, unassigned) [3(D), N-[3-(N'-Hydroxycarboxamido)-2-(2-methylpropyl)butanoyl]-O-methyl-L-tyrosine N-Methylamide] the value was 0.3 µM. `CNC(=O)[C@H](Cc1ccc(OC)cc1)NC(=O)C(CC(C)C)C(C(=O)NO)c1ccccc1` (single isomer, unassigned) [4(A), N-[3-(N'-Hydroxycarboxamido)-2-(2-methylpropyl)-3-phenylpropanoyl]-O-methyl-L-tyrosine N-Methylamide] gave an IC50 of 0.6 µM.

`CNC(=O)[C@H](Cc1ccc(OC)cc1)NC(=O)C(CC(C)C)C(C(=O)NO)c1ccccc1` (single isomer, unassigned) [4(B), N-[3-(N'-Hydroxycarboxamido)-2-(2-methylpropyl)-3-phenylpropanoyl]-O-methyl-L-tyrosine N-Methylamide] came in with an IC50 of 1 µM. For `CNC(=O)[C@H](C)NC(=O)C(CC(=O)NO)CC(C)C` (single isomer, unassigned) [8(A), N-[3-(N'-Hydroxycarboxamido)-2-(2-methylpropyl)propanoyl]-L-alanine N-Methylamide] the value was 0.15 µM; for `CNC(=O)[C@H](Cc1ccc(O)cc1)NC(=O)C(CC(=O)NO)CC(C)C` (single isomer, unassigned) [9(A), N-[3-(N'-Hydroxycarboxamido)-2-(2-methylpropyl)propanoyl]-L-tyrosine N-Methylamide], 0.037 µM. `CNC(=O)[C@H](Cc1ccc(O)cc1)NC(=O)C(CC(=O)NO)CC(C)C` (single isomer, unassigned) [9(B), N-[3-(N'-Hydroxycarboxamido)-2-(2-methylpropyl)propanoyl]-L-tyrosine N-Methylamide]: inhibition was half-maximal at 0.52 µM (IC50). On to `CCCCC(CC(=O)NO)C(=O)N[C@@H](Cc1ccc(OC)cc1)C(=O)NC` (single isomer, unassigned) [12(B)], for which the midpoint of inhibition, the IC50, lay at 1 µM. For `CNC(=O)[C@H](Cc1ccc(OC)cc1)NC(=O)C(CC(=O)NO)Cc1ccccc1` (single isomer, unassigned) [13(A), N-[3-(N'-Hydroxycarboxamido)-2-benzylpropanoyl]-O-methyl-L-tyrosine N-Methylamide] the value was 5 µM; for `CNC(=O)[C@H](Cc1ccc(OC)cc1)NC(=O)C(CC(=O)NO)Cc1ccccc1` (single isomer, unassigned) [13(B), N-[3-(N'-Hydroxycarboxamido)-2-benzylpropanoyl]-O-methyl-L-tyrosine N-Methylamide], greater than 100 µM; for `CCCCC(C(=O)NO)C(CC(C)C)C(=O)N[C@@H](Cc1ccc(OC)cc1)C(=O)NC` (single isomer, unassigned) [18(A), N-[3-(N'-Hydroxycarboxamido)-2-(2-methylpropyl)heptanoy]-O-methyl-L-tyrosine N-Methylamide], 0.2 µM.

As to `CCCCC(C(=O)NO)C(CC(C)C)C(=O)N[C@@H](Cc1ccc(OC)cc1)C(=O)NC` (single isomer, unassigned) [18(B), N-[3-(N'-Hydroxycarboxamido)-2-(2-methylpropyl)heptanoy]-O-methyl-L-tyrosine N-Methylamide], the IC50 was greater than 100 µM. As for `CNC(=O)[C@H](C)NC(=O)C(CC(C)C)C(C)C(=O)NO` (single isomer, unassigned) [19(A), N-[3-(N'-Hydroxycarboxamido)-2-(2-methylpropyl)butanoyl]-L-alanine N-Methylamide], the figure is 100 µM; as for `CNC(=O)[C@H](C)NC(=O)C(CC(C)C)C(C)C(=O)NO` (single isomer, unassigned) [19(B), N-[3-(N'-Hydroxycarboxamido)-2-(2-methylpropyl)butanoyl]-L-alanine N-Methylamide], 0.3 µM; as for `CCCCC(CC(=O)NO)C(=O)N[C@@H](Cc1ccc(OC)cc1)C(=O)NC` (stereo partly drawn) [12(A)], 0.03 µM. `CNC(=O)[C@H](Cc1ccc(OC)cc1)NC(=O)C(C)CC(=O)NO` (stereo partly drawn) [Example 5, N-[3-(N'-Hydroxycarboxamido)-2-methylpropanoyl]-O-methyl-L-tyrosine N-Methylamide] had an IC50 of 100 to 1000 µM. For `CNC(=O)[C@H](Cc1ccc(OC)cc1)NC(=O)CCC(=O)NO` [Example 6, N-[3-(N'-Hydroxycarboxamido)propanoyl]-O-methyl-L-tyrosine N-Methylamide] the value was greater than 1000 µM; for `CNC(=O)[C@H](Cc1ccc(OC)cc1)NC(=O)C(=CC(=O)NO)CC(C)C` [Example 7, N-[3-(N'-Hydroxycarboxamido)-2-(2-methylpropyl)propenoyl]-O-methyl-L-tyrosine N-Methylamide], 0.7 µM; for `CNC(=O)[C@H](Cc1ccc(OC)cc1)NC(=O)C(CC(C)C)=C(C)C(=O)NO` [Example 20, N-[3-(N'-Hydroxycarboxamido)-2-(2-methylpropyl)-Δ^2,3-butenoyl]-O-methyl-L-tyrosine N Methylamide], 1 µM.
